We go through one compound from paper PMC3965533, “Inhibition of Cathepsin B by E-64 Induces Oxidative Stress and Apoptosis in Filarial Parasite” (PLoS ONE, 2014).

In the assay the test system is cathepsin B (cathepsin B like cysteine protease).

For the compound `CC(C)C[C@H](NC(=O)[C@H]1O[C@@H]1C(=O)O)C(=O)NCCCCNC(=N)N` [E-64, L-trans-Epoxysuccinyl-leucylamido (4-guanidino)butane], the midpoint of inhibition, the IC50, lay at 6 µM.
